# Reference: patent US8937077B2, “Bicyclic diamines as janus kinase inhibitors” (Merck Sharp & Dohme Corp., priority 2010, dated 2015)
# Target: T1, Jak1 (Homo sapiens, UniProt P23458)
# T1 construct: using a recombinant purified GST-tagged catalytic domain for each enzyme; GST; purchased Invitrogen M4290
# Assay: Jak Biochemical HTRF Assay (Jak1)
# Conditions: IC50 class, recombinant GST-tagged catalytic domain, read-out: Jak1 activity
# Summary of the method: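 Recombinant GST-tagged Jak1 catalytic domain was preincubated with compound and peptide substrate for 30 min at room temperature, and the reaction was then started with ATP and run 120 min. Buffer contained 2 mM DTT and 0.05% BSA. Read-out was HTRF (665/615 nm) with Eu-pY20 antibody and streptavidin-Dylight, and IC50 values came from 4-parameter fits of percent inhibition.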
# T1 sequence (P23458 875-1153 limits assumed): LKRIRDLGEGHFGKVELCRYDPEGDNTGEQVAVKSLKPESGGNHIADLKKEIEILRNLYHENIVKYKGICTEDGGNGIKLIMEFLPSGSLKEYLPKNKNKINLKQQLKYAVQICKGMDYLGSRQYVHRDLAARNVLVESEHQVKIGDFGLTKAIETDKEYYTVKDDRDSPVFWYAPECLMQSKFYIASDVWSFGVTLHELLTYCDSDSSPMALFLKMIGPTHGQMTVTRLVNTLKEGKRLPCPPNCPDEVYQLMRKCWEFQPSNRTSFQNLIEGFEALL
row,SMILES,IC50 [nM]
1,"N#Cc1cccc(C(=O)N2CCC[C@@H]3[C@H]2CCN3c2ncnc3[nH]ccc23)c1 [Example 29-31, 3-{[(3aR,7aR)-1-(7H-pyrrolo[2,3-d]pyrimidin-4-yl)octahydro-4H-pyrrolo[3,2-b]pyridin-4-yl]carbonyl}benzonitrile]",10 to 100
2,"O=C(c1ccsc1)N1CCC[C@@H]2[C@H]1CCN2c1ncnc2[nH]ccc12 [Example 29-32, 4-[(3aR,7aR)-4-(thiophen-3-ylcarbonyl)octahydro-1H-pyrrolo[3,2-b]pyridin-1-yl]-7H-pyrrolo[2,3-d]pyrimidine]",10 to 100
3,"N#Cc1ccccc1C(=O)N1CCC[C@@H]2[C@H]1CCN2c1ncnc2[nH]ccc12 [Example 29-33, 2-{[(3aR,7aR)-1-(7H-pyrrolo[2,3-d]pyrimidin-4-yl)octahydro-4H-pyrrolo[3,2-b]pyridin-4-yl]carbonyl}benzonitrile]",10 to 100
4,"O=C(c1ccccc1)N1CCC[C@@H]2[C@H]1CCN2c1ncnc2[nH]ccc12 [Example 29-34, 4-[(3aR,7aR)-4-(phenylcarbonyl)octahydro-1H-pyrrolo[3,2-b]pryidin-1-yl]-7H-pyrrolo[2,3-d]pyrimidine]",10 to 100
5,"O=C(c1cncc2ccccc12)N1CCC[C@@H]2[C@H]1CCN2c1ncnc2[nH]ccc12 [Example 29-40, 4-{[(3aR,7aR)-1-(7H-pyrrolo[2,3-d]pyrimidin-4-yl)octahydro-4H-pyrrolo[3,2-b]pyridin-4-yl]carbonyl}isoquinoline]",10 to 100
6,"O=C(c1ncoc1C1CC1)N1CCC[C@@H]2[C@H]1CCN2c1ncnc2[nH]ccc12 [Example 29-41, 4-{(3aR,7aR)-4-[(5-cyclopropyl-1,3-oxazol-4-yl)carbonyl]octahydro-1H-pyrrolo[3,2-b]pyridin-1-yl}-7H-pyrrolo[2,3-d]pyrimidine]",10 to 100
7,"CC(Cc1ccccc1)C(=O)N1CCC[C@@H]2[C@H]1CCN2c1ncnc2[nH]ccc12 (stereo partly drawn) [Example 29-42, 4-[(3aR,7aR)-4-(2-methyl-3-phenylpropanoyl)octahydro-1H-pyrrolo[3,2-b]pyridin-1-yl]-7H-pyrrolo[2,3-d]pyrimidine]",10 to 100
8,"O=C(C(O)c1ccccc1)N1CCC[C@@H]2[C@H]1CCN2c1ncnc2[nH]ccc12 (stereo partly drawn) [Example 29-46, 2-oxo-1-phenyl-2-[(3aR,7aR)-1-(7H-pyrrolo[2,3-d]pyrimidin-4-yl)octahydro-4H-pyrrolo[3,2-b]pyridin-4-yl]ethanol]",10 to 100
9,"O=C(c1nccc2ccccc12)N1CCC[C@@H]2[C@H]1CCN2c1ncnc2[nH]ccc12 [Example 29-47, 1-{[(3aR,7aR)-1-(7H-pyrrolo[2,3-d]pyrimidin-4-yl)octahydro-4H-pyrrolo[3,2-b]pyridin-4-yl]carbonyl}isoquinoline]",10 to 100
10,"O=C(c1cc2ccsc2[nH]1)N1CCC[C@@H]2[C@H]1CCN2c1ncnc2[nH]ccc12 [Example 29-48, 4-[(3aR,7aR)-4-(6H-thieno[2,3-b]pyrrol-5-ylcarbonyl)octahydro-1H-pyrrolo[3,2-b]pryidin-1-yl]7H-pyrrolo[2,3-d]pyrimidine]",100 to 1000
11,"O=C(c1cn2cccnc2n1)N1CCC[C@@H]2[C@H]1CCN2c1ncnc2[nH]ccc12 [Example 29-49, 4-[(3aR,7aR)-4-(imidazo[1,2-a]pyrimidin-2-ylcarbonyl)octahydro-1H-pyrrolo[3,2-b]pyridin-1-yl]-7H-pyrrolo[2,3-d]pyrimidine]",100 to 1000
12,"Cn1ccc2cc(C(=O)N3CCC[C@@H]4[C@H]3CCN4c3ncnc4[nH]ccc34)cnc21 [Example 29-50, 4-{(3aR,7aR)-4-[(1-methyl-1H-pyrrolo[2,3-b]pyridin-5-yl)carbonyl]octahydro-1H-pyrrolo[3,2-b]pyridin-1-yl}-7H-pyrrolo[2,3-d]pyrimidine]",100 to 1000
13,"O=C(c1cc2ccccn2c1)N1CCC[C@@H]2[C@H]1CCN2c1ncnc2[nH]ccc12 [Example 29-52, 4-[(3aR,7aR)-4-(indolizin-2-ylcarbonyl)octahydro-1H-pyrrolo[3,2-b]pyridin-1-yl]-7H-pyrrolo[2,3-d]pyrimidine]",100 to 1000
14,"O=C(Cn1cnc2ccccc21)N1CCC[C@@H]2[C@H]1CCN2c1ncnc2[nH]ccc12 [Example 29-53, 4-[(3aR,7aR)-4-(1H-benzimidazol-1-ylacetyl)octahydro-1H-pyrrolo[3,2-b]pyridin-1-yl]-7H-pyrrolo[2,3-d]pyrimidine]",100 to 1000
15,"O=C(Cn1cc2ccccc2n1)N1CCC[C@@H]2[C@H]1CCN2c1ncnc2[nH]ccc12 [Example 29-54, 4-[(3aR,7aR)-4-(2H-indazol-2-ylacetyl)octahydro-1H-pyrrolo[3,2-b]pyridin-1-yl]-7H-pyrrolo[2,3-d]pyrimidine]",100 to 1000
16,"CN1CCCC(CCC(=O)N2CCC[C@@H]3[C@H]2CCN3c2ncnc3[nH]ccc23)C1 (stereo partly drawn) [Example 29-55, 4-{(3aR,7aR)-4-[3-(1-methylpiperidin-3-yl)propanoyl]octahydro-1H-pyrrolo[3,2-b]pyridin-1-yl}-7H-pyrrolo[2,3-d]pyrimidine]",100 to 1000
17,"O=C(c1cc(-c2cccc(F)c2)no1)N1CCC[C@@H]2[C@H]1CCN2c1ncnc2[nH]ccc12 [Example 29-57, 4-[(3aR,7aR)-4-{[3-(3-fluorophenyl)isoxazol-5-yl]carbonyl}octahydro-1H-pyrrolo[3,2b]pryidin-1-yl]-7H-pyrrolo[2,3-d]pyrimidine]",100 to 1000
18,"O=C(c1cn2ccc(Cl)cc2n1)N1CCC[C@@H]2[C@H]1CCN2c1ncnc2[nH]ccc12 [Example 29-60, 4-{(3aR,7aR)-4-[(7-chloroimidazo[1,2-a]pyridin-2-yl)carbonyl]octahydro-1H-pyrrolo[3,2-b]pyridin-1-yl}-7H-pyrrolo[2,3-d]pyrimidine]",100 to 1000
19,"O=C(c1ccnc2ccccc12)N1CCC[C@@H]2[C@H]1CCN2c1ncnc2[nH]ccc12 [Example 29-61, 4-{[(3aR,7aR)-1-(7H-pyrrolo[2,3-d]pyrimidin-4-yl)octahydro-4H-pyrrolo[3,2-b]pyridin-4-yl]carbonyl}quinoline]",10 to 100
20,"O=C1NCc2ccc(C(=O)N3CCC[C@@H]4[C@H]3CCN4c3ncnc4[nH]ccc34)cc21 [Example 29-62, 6-{[(3aR,7aR)-1-(7H-pyrrolo[2,3-d]pyrimidin-4-yl)octahydro-4H-pyrrolo[3,2-b]pyridin-4-yl]carbonyl}-2,3-dihydro-1H-isoindol-1-one]",10 to 100
21,"O=C(OCc1ccccc1)N1CCCC2C1CCN2c1ccnc2[nH]ccc12 [Example 30, (3aS,7aS and 3aR,7aR) benzyl 1-(1H-pyrrolo[2,3-b]pyridine-4-yl)octahydro-4H-pyrrolo[3,2-b]pyridine-4-carboxylate]",100 to 1000

# More lines, now with the values ahead:
row,IC50 [nM],SMILES
1,10 to 100,"CCC[C@H]1C[C@H]1C(=O)N1CCC[C@@H]2[C@H]1CCN2c1ncnc2[nH]ccc12 [Example 29-30, 4-[(3aR,7aR)-4-{[(1R,2S)-2-propylcyclopropyl]carbonyl}octahydro-1H-pyrrolo[3,2-b]pyridin-1-yl]-7H-pyrrolo[2,3-d]pyrimidine]"
2,10 to 100,"CN(C)C(=O)N1CCC(C(=O)N2CCC[C@@H]3[C@H]2CCN3c2ncnc3[nH]ccc23)CC1 [Example 29-35, N,N-dimethyl-4-{[(3aR,7aR)-1-(7H-pyrrolo[2,3-d]pyrimidin-4-yl)octahydro-4H-pyrrolo[3,2-b]pyridin-4-yl]carbonyl}piperidine-1-carboxamide]"
3,10 to 100,"O=C(CN1CCc2ccccc2C1)N1CCC[C@@H]2[C@H]1CCN2c1ncnc2[nH]ccc12 [Example 29-36, 2-{2-oxo-2-[(3aR,7aR)-1-(7H-pyrrolo[2,3-d]pyrimidin-4-yl)octahydro-4H-pyrrolo[3,2-b]pyridin-4-yl]ethyl}-1,2,3,4-tetrahydroisoquinoline]"
4,10 to 100,"O=C(c1cccc2cnccc12)N1CCC[C@@H]2[C@H]1CCN2c1ncnc2[nH]ccc12 [Example 29-37, 5-{[(3aR,7aR)-1-(7H-pyrrolo[2,3-d]pyrimidin-4-yl)octahydro-4H-pyrrolo[3,2-b]pyridin-4-yl]carbonyl}isoquinoline]"
5,10 to 100,"O=C(C1COc2ccccc2O1)N1CCC[C@@H]2[C@H]1CCN2c1ncnc2[nH]ccc12 (stereo partly drawn) [Example 29-38, 4-[(3aR,7aR)-4-(2,3-dihydro-1,4-benzodioxin-2-ylcarbonyl)octahydro-1H-pyrrolo[3,2-b]pyridin-1-yl]-7H-pyrrolo[2,3-d]pyrimidine]"
6,10 to 100,"O=C(c1cccc2ccncc12)N1CCC[C@@H]2[C@H]1CCN2c1ncnc2[nH]ccc12 [Example 29-39, 8-{[(3aR,7aR)-1-(7H-pyrrolo[2,3-d]pyrimidin-4-yl)octahydro-4H-pyrrolo[3,2-b]pyridin-4-yl]carbonyl}isoquinoline]"
7,10 to 100,"O=C(c1cnc2ccccc2c1)N1CCC[C@@H]2[C@H]1CCN2c1ncnc2[nH]ccc12 [Example 29-44, 3-{[(3aR,7aR)-1-(7H-pyrrolo[2,3-d]pyrimidin-4-yl)octahydro-4H-pyrrolo[3,2-b]pyridin-4-yl]carbonyl}quinoline]"
8,10 to 100,"O=C(c1c[nH]c2ccncc12)N1CCC[C@@H]2[C@H]1CCN2c1ncnc2[nH]ccc12 [Example 29-45, 4-[(3aR,7aR)-4-(1H-pyrrolo[3,2-c]pyridin-3-ylcarbonyl)octahydro-1H-pyrrolo[3,2-b]pyridin-1-yl]-7H-pyrrolo[2,3-d]pyrimidine]"
9,100 to 1000,"O=C(c1cccc2cccnc12)N1CCC[C@@H]2[C@H]1CCN2c1ncnc2[nH]ccc12 [Example 29-51, 8-{[(3aR,7aR)-1-(7H-pyrrolo[2,3-d]pyrimidin-4-yl)octahydro-4H-pyrrolo[3,2-b]pyridin-4-yl]carbonyl}quinoline]"
10,100 to 1000,"Cn1ncc2cc(CC(=O)N3CCC[C@@H]4[C@H]3CCN4c3ncnc4[nH]ccc34)ccc21 [Example 29-59, 4-{(3aR,7aR)-4-[(1-methyl-1H-indazol-5-yl)acetyl]octahydro-1H-pyrrolo[3,2-b]pyridin-1-yl}-7H-pyrrolo[2,3-d]pyrimidine]"

# Same assay, conditions: recombinant GST-tagged catalytic domain, 31.8 μM ATP, read-out: Representative IC50 values
row,IC50 [nM],SMILES
1,30,"O=C(CN1CCc2ccccc2C1)N1CCC[C@@H]2[C@H]1CCN2c1ncnc2[nH]ccc12 [Example 29-36, 2-{2-oxo-2-[(3aR,7aR)-1-(7H-pyrrolo[2,3-d]pyrimidin-4-yl)octahydro-4H-pyrrolo[3,2-b]pyridin-4-yl]ethyl}-1,2,3,4-tetrahydroisoquinoline]"
2,132,"O=C(c1cn2cccnc2n1)N1CCC[C@@H]2[C@H]1CCN2c1ncnc2[nH]ccc12 [Example 29-49, 4-[(3aR,7aR)-4-(imidazo[1,2-a]pyrimidin-2-ylcarbonyl)octahydro-1H-pyrrolo[3,2-b]pyridin-1-yl]-7H-pyrrolo[2,3-d]pyrimidine]"
